Source: patent US7816074B2, “α4 β2 δGABA-A receptors as a strategy for PMS and alcoholism” (priority 2003, dated 2010)

Tests used:
α4β2δ GABAA receptors = target: T1, α4β2δ GABAA receptors (UniProt O14764+P63138+Q9D6F4); test: Two-electrode voltage-clamp of recombinant GABAA receptors in oocytes; format: cell-based; settings: 1 mM ethanol
T1 construct: expressed in transfected cells
Protocol: Oocytes were injected with receptor subunit cRNAs (2 to 20 ng) in the following ratios: α1:β1:γ2S, α1:β2:γ2S and α1:β1:ε1, 1:1:1; α2:β1:γ2S, α5:β1:γ2S, α4:β1:γ2S, and α4:β2:γ2S, 10:1:1; α4:β1:δ, α4:β2:δ, α4:β3δ, 10:1:10; α1:β2:δ, 1:1:10 or 1:0.5:3; α1:β1:δ, 1:1:10 or 1:0.5:3; α2:β1:δ and α2:β2:δ, 1:0.5:3; α1:β1, α1:β2, α2:β1, α2:β2, β2:γ2S and α4δ, 1:1, α4:β1, α4:β2, α4:β3, 10:1, β2δ, 1:10.
Voltage-clamp recording was carried out 1 to 3 days after injection of cRNAs. Electrodes were filled with 3 M KCl and had resistances of 0.4-4 MΩ. Oocytes were positioned in a small Perspex chamber and continuously superfused with a saline solution (100 mM NaCl, 2 mM KCl, 1.8 mM CaCl2, 10 mM HEPES, pH 7.5). Agonists and modulators were both applied in the same saline solution. Oocytes were voltage-clamped at −70 mV and macroscopic currents were recorded with a two-electrode voltage-clamp using a Warner Instruments OC-725 amplifier as described previously (79). Currents were recorded on a chart recorder or by using Axograph on a Macintosh computer.

[1] = target: α1β1 receptors / oocytes injected with α1+β1+δ (Rattus norvegicus, UniProt P15431+P62813); settings: 1 mM alcohol
Sequence of α1β1 receptors / oocytes injected with α1+β1+δ (P62813 28-455): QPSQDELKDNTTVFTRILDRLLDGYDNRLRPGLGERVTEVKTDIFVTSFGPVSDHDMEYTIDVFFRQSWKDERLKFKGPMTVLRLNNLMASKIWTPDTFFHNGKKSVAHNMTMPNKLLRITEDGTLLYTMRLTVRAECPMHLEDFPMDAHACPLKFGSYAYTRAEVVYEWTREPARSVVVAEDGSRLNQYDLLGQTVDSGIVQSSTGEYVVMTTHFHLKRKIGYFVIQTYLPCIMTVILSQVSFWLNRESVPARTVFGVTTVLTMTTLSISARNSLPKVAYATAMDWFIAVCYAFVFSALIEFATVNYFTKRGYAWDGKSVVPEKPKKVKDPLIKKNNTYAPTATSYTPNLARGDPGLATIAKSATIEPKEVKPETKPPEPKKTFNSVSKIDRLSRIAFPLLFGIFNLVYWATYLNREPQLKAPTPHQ
Sequence of α1β1 receptors / oocytes injected with α1+β1+δ (P15431 26-474): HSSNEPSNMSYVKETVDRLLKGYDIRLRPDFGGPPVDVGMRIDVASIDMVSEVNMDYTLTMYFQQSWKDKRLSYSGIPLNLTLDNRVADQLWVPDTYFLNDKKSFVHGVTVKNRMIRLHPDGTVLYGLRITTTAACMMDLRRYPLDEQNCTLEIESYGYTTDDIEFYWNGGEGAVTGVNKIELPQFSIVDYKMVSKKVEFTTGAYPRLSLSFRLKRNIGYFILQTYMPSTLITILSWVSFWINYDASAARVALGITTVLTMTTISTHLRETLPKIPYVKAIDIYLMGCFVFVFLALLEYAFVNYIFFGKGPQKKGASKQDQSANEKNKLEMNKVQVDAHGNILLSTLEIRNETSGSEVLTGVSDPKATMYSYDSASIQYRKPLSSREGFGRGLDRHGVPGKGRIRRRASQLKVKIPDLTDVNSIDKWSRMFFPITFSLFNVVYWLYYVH
From the text: Plasmids with inserts encoding GABAA receptor subunit sequence for rat α1 (62), rat β2 (83), rat α2 (62), rat α5 (62), mouse α4 (37), mouse β3 (82), rat β1 (83), rat γ2S (63), human δ (12), and human ε (11) were produced by subcloning each separately into an appropriate cloning vehicle such as PCDM8, pCDNA3.1 or pGHEMHE vectors (Invitrogen, Carlsbad Calif.) using a T7 promoter and standard subcloning techniques (59). Plasmids were linearized with an appropriate restriction enzyme at a site 3′ to the insert and cRNAs were synthesized using T3 or T7 polymerase (mMessage mMachine, Ambion, Tex.). The size of the cRNA was verified and RNA was quantified by ethidium bromide staining after electrophoresis on 1% agarose gels.
The preparation, injection, and maintenance of oocytes were carried out as described previously (78). […]
Voltage-clamp recording was carried out 1 to 3 days after injection of cRNAs. […] Oocytes were voltage-clamped at −70 mV and macroscopic currents were recorded with a two-electrode voltage-clamp using a Warner Instruments OC-725 amplifier as described previously (79). Currents were recorded on a chart recorder or by using Axograph on a Macintosh computer. […]

[2] = tested on: GABAA receptors of acutely isolated CA1 hippocampal pyramidal cells; settings: ethanol 1-3 mM, but not higher (>10 mM); after progesterone withdrawal (ref. 67); cited from earlier work
female Long Evans rats = test: Elevated plus maze; settings: ethanol 0.5 g/kg
Protocol: Adult, female Long Evans rats (200-250 grams at the time of testing) were used in the following example. Animals were housed in pairs under controlled conditions (14:10 light:dark cycle, 24° C.) with free access to food and water. Progesterone (P, Sigma, crystalline)-filled capsules of silicone tubing (Nalgene Co. 1/16″×⅛″ o.d., 10 mm/100 g body weight) were implanted subcutaneously in the lower back after induction of halothane anesthesia (3-6% in O2, 1 liter/minutes) in the experimental animals. […] Capsules were removed under halothane anesthesia after a 21-day P administration period, and animals tested 24 hours after the last injection (“P withdrawal”). Control animals were tested on the day of diestrus, also referred to as diestrus controls, a low hormone state, as determined by vaginal lavage. […] All animals were tested between 0730 and 1100 hour. Euthanasia was either by decapitation in the electrophysiology experiments or CO2 inhalation for the behavioral experiments following the indicated protocols.
This device consists of four 10×50 cm arms at 90° angles, with two arms enclosed by 40 cm walls, and two open arms, all elevated 50 cm above the floor. The open arms are also partially bordered by small rails extending to the proximal half of the arm, and the floor of the maze is marked with grid lines every 25 cm. […] Both number of entries and duration of time spent in the open and closed arms were tabulated, as were the total arm entries, a measure of general activity level. To be considered an open arm entry, the animal had to cross the line of the open platform with all four paws. An increase in open arm entries or time spent in the open arm versus the total time is considered to be a measure of decreased anxiety, (25).

T1 sequence (Q9D6F4 36-552): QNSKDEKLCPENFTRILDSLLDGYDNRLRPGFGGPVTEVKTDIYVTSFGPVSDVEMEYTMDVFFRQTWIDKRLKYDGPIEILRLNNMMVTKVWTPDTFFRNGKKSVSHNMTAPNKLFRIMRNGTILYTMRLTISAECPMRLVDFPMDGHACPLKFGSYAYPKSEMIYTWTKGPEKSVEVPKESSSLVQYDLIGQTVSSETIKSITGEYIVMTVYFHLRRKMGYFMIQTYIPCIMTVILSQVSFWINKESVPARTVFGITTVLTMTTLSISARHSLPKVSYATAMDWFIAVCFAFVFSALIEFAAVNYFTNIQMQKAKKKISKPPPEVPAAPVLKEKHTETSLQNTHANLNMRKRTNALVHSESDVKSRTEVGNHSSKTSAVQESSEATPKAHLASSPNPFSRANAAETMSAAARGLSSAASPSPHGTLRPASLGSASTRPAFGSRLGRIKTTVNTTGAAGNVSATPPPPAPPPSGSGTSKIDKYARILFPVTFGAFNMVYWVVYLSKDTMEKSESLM
T1 sequence (P63138 25-474 limits assumed): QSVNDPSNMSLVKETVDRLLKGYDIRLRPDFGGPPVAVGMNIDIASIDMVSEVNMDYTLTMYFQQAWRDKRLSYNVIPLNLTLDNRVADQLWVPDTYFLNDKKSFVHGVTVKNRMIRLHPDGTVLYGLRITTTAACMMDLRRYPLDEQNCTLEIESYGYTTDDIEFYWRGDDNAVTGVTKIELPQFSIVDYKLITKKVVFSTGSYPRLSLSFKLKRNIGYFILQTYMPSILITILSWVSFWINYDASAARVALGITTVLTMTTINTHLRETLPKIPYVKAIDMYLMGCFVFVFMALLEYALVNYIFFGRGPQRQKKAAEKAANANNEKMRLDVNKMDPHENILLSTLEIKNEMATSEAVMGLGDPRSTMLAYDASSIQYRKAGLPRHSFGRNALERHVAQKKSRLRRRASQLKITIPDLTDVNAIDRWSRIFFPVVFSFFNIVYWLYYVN
T1 sequence (O14764 17-452 limits assumed): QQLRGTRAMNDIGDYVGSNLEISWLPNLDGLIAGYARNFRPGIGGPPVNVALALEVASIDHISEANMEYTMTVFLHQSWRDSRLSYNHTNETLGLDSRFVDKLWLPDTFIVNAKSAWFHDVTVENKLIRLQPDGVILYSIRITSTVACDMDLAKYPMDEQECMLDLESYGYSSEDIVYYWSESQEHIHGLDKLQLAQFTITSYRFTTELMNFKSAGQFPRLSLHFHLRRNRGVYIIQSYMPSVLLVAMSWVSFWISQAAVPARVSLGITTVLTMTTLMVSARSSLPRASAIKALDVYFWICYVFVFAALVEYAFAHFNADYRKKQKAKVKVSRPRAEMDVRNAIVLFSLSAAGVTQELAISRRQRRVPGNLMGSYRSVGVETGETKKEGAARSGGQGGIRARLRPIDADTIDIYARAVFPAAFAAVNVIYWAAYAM

- increase of GABA-gated currents at α4β2δ receptors (α4β2δ GABAA receptors): 45±11%
- effect on GABA responses [1]: not altered
- locomotor activity (total number of arm entries) (female Long Evans rats; either group): not significantly altered
Compound: CCO [ethanol]
- effect on GABA-gated current of isolated hippocampal neurons [2]: potentiated
- % open arm entries, P withdrawn greater than control animals after ethanol (female Long Evans rats): 50%
- time in the open arm, P withdrawn relative to control animals after ethanol (female Long Evans rats): 3 fold
- increase of % of open arm entries compared to vehicle (female Long Evans rats; P withdrawn animals): 7 fold
- increase of time in the open arm compared to vehicle (female Long Evans rats; P withdrawn animals): more than 20 fold
- effect on open arm time and % open arm entries (female Long Evans rats; control animals): no significant effect
